Values quoted from earlier work, collected in patent publication US20190175610A1 (priority 2017, published 2019).

Conditions: athletes, during exercise after oral supplementation

## C[N+](C)(C)C[C@H](O)CC(=O)[O-] [L-carnitine, γ-trimethylamino-β-hydroxybutyrate]
  benefit on fatty acid metabolism: no benefit
